Source: US10583137B2, “Triazole DAGLα inhibitors” (THE SCRIPPS RESEARCH INSTITUTE, priority 2015, dated 2020)

What was measured:
DAGL enzymes = test: brain proteomes of treated mice conjugated to Cy5 fluorophore by CuAAC; type: in vivo, mouse
serine hydrolases = test: ABPP selectivity against serine hydrolases in mouse brain proteome; type: biochemical
Protocol: Compounds 14 and 17 were evaluated for activity and selectivity against endogenous DAGLs and other serine hydrolases in the mouse brain proteome using a ABPP of mouse brain proteome assay as described in Example 16. These experiments were performed using three different activity-based probesprobe compound 58 (targets DAGLα and DAGLβ), HT-01 (targets DAGLα and DAGLβ), and FP-Rh (broad-spectrum serine hydrolase-directed probe fluorophosphonate-rhodamine).
Data represent average values±SEM; n=3 per group. […] Compounds 14 and 17 had minimal and negligible binding, respectively, to cannabinoid CB1 (CB1R) and CB2 (CB2R) receptors as measured with a radioligand binding assay (IC50 values>1 μM) (data not shown).
The selectivity of compounds 14 and 17 for additional serine hydrolases was assessed using probe FP-Rh (0.5 μM, 20 min; data not shown). Representative mouse brain serine hydrolases detected by FP-Rh were FAAH, MAGL, and ABHD6.

[1] = system: LPS-induced neuroinflammatory responses (brain lipids, cytokines, body temperature); test: LPS-induced neuroinflammatory responses in mouse brain; type: in vivo; conditions: mice; for LPS-induced elevation in brain 2-AG / LPS-induced elevation in brain PGE2 / LPS-stimulated brain cytokines: 50 mg/kg i.p. 60-90 min before LPS 20 mg/kg i.p., 6 hr; for LPS-induced anapyrexia: 50 mg/kg i.p. before LPS; for brain 2-AG under basal control conditions / brain AA under basal control conditions / brain PGE2 under basal control conditions: 50 mg/kg i.p., no LPS
Protocol: The effects of pharmacological and genetic inactivation of DAGL activity on neuroinflammatory responses (brain prostaglandin and cytokine production) induced by high-dose lipopolysaccharide treatment was examined.
Mice were treated with compounds 14, 17, control compound 22 or vehicle (50 mg/kg, i.p) for 60-90 min, followed by LPS (20 mg/kg, i.p., 6 hr) or vehicle. The mice were subsequently sacrificed and their brain lipid and cytokine profiles analyzed. […] The LPS-induced elevations in both 2-AG and PGE2 were suppressed in compound 14 and compound 17 treated mice and DAGLα/mice, but not compound 22 treated mice. […] LPS-induced anapyrexia was blunted in compound 14 and 17 treated mice (FIG. 8E) and DAGLα−/− mice (FIG. 8F), but not compound 22 treated mice (FIG. 8E).

LIPE = LIPE (Mus musculus (Mouse), UniProt P54310); test: in vivo ABPP coupled to quantitative mass spectrometry (FP-biotin, ReDiMe); conditions: brain proteomes of treated mice
LIPE, sequence (P54310 whole entry): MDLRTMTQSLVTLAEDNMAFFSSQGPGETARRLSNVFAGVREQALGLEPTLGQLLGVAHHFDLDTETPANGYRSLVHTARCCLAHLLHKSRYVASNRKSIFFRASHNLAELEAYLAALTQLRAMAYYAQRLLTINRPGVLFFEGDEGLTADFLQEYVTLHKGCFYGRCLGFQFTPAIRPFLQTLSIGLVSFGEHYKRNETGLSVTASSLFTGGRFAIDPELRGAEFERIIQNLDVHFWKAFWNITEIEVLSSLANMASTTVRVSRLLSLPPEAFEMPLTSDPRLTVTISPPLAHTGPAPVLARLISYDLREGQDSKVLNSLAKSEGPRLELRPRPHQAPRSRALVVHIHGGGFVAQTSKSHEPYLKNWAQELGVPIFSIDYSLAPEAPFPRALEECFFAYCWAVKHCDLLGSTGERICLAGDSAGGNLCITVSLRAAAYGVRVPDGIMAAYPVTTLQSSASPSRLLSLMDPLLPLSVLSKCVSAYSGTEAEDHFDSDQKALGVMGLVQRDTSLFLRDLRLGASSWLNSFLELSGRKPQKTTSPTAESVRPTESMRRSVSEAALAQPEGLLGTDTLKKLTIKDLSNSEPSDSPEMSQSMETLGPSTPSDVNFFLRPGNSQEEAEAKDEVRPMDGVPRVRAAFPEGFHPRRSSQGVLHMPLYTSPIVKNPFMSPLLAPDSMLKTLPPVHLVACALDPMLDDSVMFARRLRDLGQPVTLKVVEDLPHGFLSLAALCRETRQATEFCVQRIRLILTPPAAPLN
Protocol: (§1) The extent of these target profiles were confirmed by performing ABPP coupled to high-resolution, quantitative mass spectrometry (MS). Briefly, brain proteomes from compound and vehicle-treated mice were incubated with the serine hydrolase directed activity-based probe FP-biotin, and probe-labeled enzymes were enriched by streptavidin chromatography, digested on bead with trypsin, and the resulting tryptic peptides modified by reductive dimethylation (ReDiMe) of lysine residues using isotopically heavy and light formaldehyde, respectively. In these experiments, inhibited serine hydrolases are identified as enzymes showing low heavy/light ReDiMe ratios.

BCHE = BCHE (Mus musculus (Mouse), UniProt Q03311); test: as above; conditions: brain proteomes of treated mice
BCHE, sequence (Q03311 30-603 limits assumed): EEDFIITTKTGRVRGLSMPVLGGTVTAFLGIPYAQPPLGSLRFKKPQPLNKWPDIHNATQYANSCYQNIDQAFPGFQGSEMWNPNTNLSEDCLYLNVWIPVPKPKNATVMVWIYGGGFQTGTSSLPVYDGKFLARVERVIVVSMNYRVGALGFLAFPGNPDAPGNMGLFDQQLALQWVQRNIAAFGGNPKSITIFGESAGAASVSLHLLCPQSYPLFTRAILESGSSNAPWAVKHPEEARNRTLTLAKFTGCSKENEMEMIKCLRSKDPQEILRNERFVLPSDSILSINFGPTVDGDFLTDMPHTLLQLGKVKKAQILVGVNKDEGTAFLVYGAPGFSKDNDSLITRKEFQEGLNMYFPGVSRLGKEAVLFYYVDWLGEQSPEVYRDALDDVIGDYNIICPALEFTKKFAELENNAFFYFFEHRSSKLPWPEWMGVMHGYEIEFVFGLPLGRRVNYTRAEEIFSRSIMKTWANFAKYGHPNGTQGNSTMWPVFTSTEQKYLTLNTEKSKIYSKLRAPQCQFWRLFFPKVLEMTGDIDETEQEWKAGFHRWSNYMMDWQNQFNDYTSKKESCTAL
Protocol: as §1

PLA2G7 = PLA2G7 (Mus musculus (Mouse), UniProt Q60963); test: as above; conditions: brain proteomes of treated mice
PLA2G7, sequence (Q60963 22-440): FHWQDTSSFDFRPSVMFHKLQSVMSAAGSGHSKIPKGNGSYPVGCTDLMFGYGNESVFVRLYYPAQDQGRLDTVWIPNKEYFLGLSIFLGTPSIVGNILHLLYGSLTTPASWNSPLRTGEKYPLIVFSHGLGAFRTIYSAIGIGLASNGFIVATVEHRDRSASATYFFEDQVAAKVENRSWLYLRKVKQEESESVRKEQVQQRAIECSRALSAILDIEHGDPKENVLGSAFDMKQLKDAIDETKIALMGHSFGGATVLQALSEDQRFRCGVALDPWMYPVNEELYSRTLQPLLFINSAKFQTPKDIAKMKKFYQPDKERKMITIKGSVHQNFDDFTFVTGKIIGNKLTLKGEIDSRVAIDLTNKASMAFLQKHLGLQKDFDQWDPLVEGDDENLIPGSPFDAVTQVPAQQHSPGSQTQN
Protocol: as §1

ABHD2 = ABHD2 (Mus musculus (Mouse), UniProt Q9QXM0); test: as above; conditions: brain proteomes of treated mice
ABHD2, sequence (Q9QXM0 whole entry): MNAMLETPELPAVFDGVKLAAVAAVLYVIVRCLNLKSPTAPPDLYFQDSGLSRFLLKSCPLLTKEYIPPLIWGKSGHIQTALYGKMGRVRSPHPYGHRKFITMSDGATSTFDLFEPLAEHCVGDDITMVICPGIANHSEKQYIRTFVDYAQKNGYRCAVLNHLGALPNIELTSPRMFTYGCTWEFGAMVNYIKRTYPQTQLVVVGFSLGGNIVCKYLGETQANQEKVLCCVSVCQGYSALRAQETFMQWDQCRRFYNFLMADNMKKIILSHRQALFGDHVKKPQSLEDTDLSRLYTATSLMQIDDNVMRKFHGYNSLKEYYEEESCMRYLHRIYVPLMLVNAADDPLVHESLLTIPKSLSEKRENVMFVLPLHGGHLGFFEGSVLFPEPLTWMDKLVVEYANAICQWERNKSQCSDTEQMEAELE
Protocol: as §1

PAFAH2 = PAFAH2 (Mus musculus (Mouse), UniProt Q8VDG7); test: as above; conditions: brain proteomes of treated mice
PAFAH2, sequence (Q8VDG7 whole entry): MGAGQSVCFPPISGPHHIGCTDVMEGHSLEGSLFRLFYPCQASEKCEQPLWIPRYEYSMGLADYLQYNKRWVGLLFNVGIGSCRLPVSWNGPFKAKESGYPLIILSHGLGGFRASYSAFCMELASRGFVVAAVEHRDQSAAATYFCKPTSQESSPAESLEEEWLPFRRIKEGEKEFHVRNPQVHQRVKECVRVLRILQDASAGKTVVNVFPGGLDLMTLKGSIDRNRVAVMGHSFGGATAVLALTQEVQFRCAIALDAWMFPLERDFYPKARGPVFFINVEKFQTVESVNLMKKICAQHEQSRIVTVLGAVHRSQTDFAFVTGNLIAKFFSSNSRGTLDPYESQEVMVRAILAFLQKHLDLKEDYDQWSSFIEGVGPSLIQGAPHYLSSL
Protocol: as §1

DAGLα = DAGLα (Mus musculus (Mouse), UniProt Q6WQJ1); test: time-course of DAGL inhibition and recovery in mice, competitive ABPP with compound 58 probe; type: in vivo; conditions: 3 mg/kg
DAGLα, sequence (Q6WQJ1 whole entry): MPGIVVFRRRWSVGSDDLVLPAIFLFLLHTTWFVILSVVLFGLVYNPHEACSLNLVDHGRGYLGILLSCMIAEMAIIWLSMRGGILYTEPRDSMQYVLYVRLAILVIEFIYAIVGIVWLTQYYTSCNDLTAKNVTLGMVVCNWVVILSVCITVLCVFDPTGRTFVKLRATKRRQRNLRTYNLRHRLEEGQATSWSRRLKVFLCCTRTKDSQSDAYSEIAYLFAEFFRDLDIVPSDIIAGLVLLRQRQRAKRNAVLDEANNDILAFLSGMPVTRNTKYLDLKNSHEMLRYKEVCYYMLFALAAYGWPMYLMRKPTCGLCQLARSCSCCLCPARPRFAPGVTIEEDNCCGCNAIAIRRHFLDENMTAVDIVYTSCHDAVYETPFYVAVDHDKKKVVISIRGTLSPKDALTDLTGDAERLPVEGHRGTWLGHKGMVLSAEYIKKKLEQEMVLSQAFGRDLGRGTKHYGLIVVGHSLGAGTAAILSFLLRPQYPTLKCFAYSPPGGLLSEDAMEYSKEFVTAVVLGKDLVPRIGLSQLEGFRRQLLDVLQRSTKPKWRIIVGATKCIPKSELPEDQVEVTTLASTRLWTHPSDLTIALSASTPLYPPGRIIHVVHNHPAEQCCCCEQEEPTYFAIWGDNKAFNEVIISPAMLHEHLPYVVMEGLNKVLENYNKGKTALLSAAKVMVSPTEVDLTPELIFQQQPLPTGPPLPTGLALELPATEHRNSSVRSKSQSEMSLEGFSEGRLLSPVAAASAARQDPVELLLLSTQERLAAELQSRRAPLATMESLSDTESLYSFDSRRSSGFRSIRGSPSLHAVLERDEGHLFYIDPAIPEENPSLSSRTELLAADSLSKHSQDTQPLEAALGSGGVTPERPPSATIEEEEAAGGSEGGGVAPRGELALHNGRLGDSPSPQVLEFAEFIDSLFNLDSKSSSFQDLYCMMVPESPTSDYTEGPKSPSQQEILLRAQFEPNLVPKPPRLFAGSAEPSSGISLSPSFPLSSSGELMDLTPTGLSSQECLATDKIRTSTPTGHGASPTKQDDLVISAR
Protocol: (§2) Inhibition of DAGL in mice with DAGL compounds 14 and 17 was investigated as a function of time as determined by competitive ABPP using the compound 58 probe (1 μM, 30 min).

DAGLβ = DAGLβ (Mus musculus (Mouse), UniProt Q91WC9); test: as above; type: in vivo; conditions: 3 mg/kg
DAGLβ, sequence (Q91WC9 whole entry): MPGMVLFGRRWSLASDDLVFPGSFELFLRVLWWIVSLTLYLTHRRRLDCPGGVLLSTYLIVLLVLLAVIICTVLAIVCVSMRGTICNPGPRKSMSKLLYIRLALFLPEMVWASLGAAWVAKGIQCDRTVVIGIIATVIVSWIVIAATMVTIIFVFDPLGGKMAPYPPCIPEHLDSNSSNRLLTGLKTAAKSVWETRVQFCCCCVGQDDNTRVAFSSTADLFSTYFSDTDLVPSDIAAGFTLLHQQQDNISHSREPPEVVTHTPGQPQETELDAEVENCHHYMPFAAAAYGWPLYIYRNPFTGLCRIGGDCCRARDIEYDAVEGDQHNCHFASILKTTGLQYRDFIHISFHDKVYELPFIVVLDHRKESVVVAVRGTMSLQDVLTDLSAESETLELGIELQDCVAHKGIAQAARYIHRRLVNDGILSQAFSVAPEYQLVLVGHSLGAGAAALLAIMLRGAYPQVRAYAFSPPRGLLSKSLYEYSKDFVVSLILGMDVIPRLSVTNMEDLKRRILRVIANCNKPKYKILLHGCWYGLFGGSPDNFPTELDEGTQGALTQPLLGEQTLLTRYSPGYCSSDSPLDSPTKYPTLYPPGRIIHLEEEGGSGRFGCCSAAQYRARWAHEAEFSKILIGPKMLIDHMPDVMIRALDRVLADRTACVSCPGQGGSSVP
Protocol: as §2

SMILES | labeling of DAGL enzymes in brain proteomes of treated mice (DAGL enzymes) | selectivity, detectable serine hydrolase off-targets (serine hydrolases) | LPS-induced elevation in brain 2-AG [1] | LPS-induced elevation in brain PGE2 [1] | LPS-stimulated brain cytokines [1] | LPS-induced anapyrexia [1] | brain 2-AG under basal control conditions [1] | brain AA under basal control conditions [1] | brain PGE2 under basal control conditions [1] | heavy/light ReDiMe ratio, LIPE (off-target) (LIPE) | heavy/light ReDiMe ratio, BCHE (off-target) (BCHE) | heavy/light ReDiMe ratio, PLA2G7 (off-target) (PLA2G7) | heavy/light ReDiMe ratio, ABHD2 (off-target) (ABHD2) | heavy/light ReDiMe ratio, PAFAH2 (off-target) (PAFAH2) | time by which DAGLα enzyme activity recovered (DAGLα) [h] | time to substantial inhibition of DAGLα after administration (DAGLα) [min] | inhibition of DAGLβ (DAGLβ)
C#CCO[C@@H]1CC[C@H](Cc2ccccc2)N(C(=O)n2ncc(C(O)(c3ccc(F)cc3)c3ccc(F)cc3)n2)C1 [Compound 14, ((2R,5R)-2-Benzyl-5-(prop-2-ynyloxy)piperidin-1-yl)(4-(bis(4-fluorophenyl)(hydroxy)methyl)-2H-1,2,3-triazol-2-yl)methanone] | direct, dose-dependent labeling | selective for DAGLs, with the only detectable serine hydrolase off-targets being ABHD6 and PLA2G7 | suppressed | suppressed | reductions | blunted | severely depleted | severely depleted | severely depleted | < 0.5 | < 0.5 | – | – | – | – | – | –
CC(C)(C)OC(=O)N1CCN(C(=O)n2cc(-c3ccc(OC(F)(F)F)cc3)nn2)C(Cc2ccccc2)C1 (stereo not shown) [Compound 17, tert-Butyl 3-benzyl-4-(4-(4-(trifluoromethoxy)phenyl)-1H-1,2,3-triazole-1-carbonyl)piperazine-1-carboxylate] | – | selective for DAGLs, with the only detectable serine hydrolase off-targets being ABHD6 and PLA2G7 | suppressed | suppressed | reductions | blunted | severely depleted | severely depleted | severely depleted | – | – | < 0.5 | < 0.5 | < 0.5 | ≤ 4 | ≤ 30 | inhibited
